Each block holds one compound with its values, some of them ahead of it. Active and inactive are the calls of the source.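 Rule for the calls: active = over 50% breakup of the Hsp90 and CDC37 protein complex, measured by pull-down and western blot; inactive = complex breakup under 10%.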
Target: Hsp90 co-chaperone Cdc37 (Homo sapiens) (UniProt Q16543)
Assay: disruption of Hsp90-CDC37 complex, late-stage follow-up, mechanism study for selective HSP90 inhibitor project, cell-based, chemiluminescence western blot, co-immunoprecipitation (AID 687006)
Conditions: MCF7 cells, Hsp90 co-IP CDC37 western blot, 24 h, hits give high values

Sequence of Hsp90 co-chaperone Cdc37 (Homo sapiens) (Q16543 whole entry, looked up): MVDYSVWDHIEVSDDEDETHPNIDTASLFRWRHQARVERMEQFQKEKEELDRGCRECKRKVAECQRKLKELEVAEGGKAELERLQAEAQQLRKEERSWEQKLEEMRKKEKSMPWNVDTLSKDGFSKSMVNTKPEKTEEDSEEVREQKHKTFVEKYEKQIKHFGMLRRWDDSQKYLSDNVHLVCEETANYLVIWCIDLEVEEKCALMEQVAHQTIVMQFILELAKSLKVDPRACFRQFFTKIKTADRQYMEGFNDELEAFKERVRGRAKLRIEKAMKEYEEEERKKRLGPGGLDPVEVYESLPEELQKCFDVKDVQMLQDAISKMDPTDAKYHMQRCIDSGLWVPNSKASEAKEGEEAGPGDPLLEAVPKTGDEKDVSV

Compound: O=C(NCCc1ccc(F)cc1)c1coc(=O)c(Br)c1
complex disruption (high dose (five times the growth IC50) 10.5 µM, low dose (half the growth IC50) 1.1 µM): < 10% (inactive)

Compound: CC(NC(=O)c1coc(=O)c(Br)c1)C1C2CCC3CC(C2)CC31 (centres undefined)
complex disruption (high dose (five times the growth IC50) 9 µM, low dose (half the growth IC50) 0.9 µM): < 10% (inactive)

Compound: Cc1cccc(NC(=O)c2coc(=O)c(Br)c2)n1
complex disruption (high dose (five times the growth IC50) 136.5 µM, low dose (half the growth IC50) 13.7 µM): < 10% (inactive)

Compound: CCCCCCCCOc1ccc(NC(=O)c2coc(=O)c(Br)c2)cc1
complex disruption (high dose (five times the growth IC50) 64.5 µM, low dose (half the growth IC50) 6.5 µM): > 50%

Compound: CCCCOc1cccc(NC(=O)c2coc(=O)c(Br)c2)c1
complex disruption (high dose (five times the growth IC50) 114 µM, low dose (half the growth IC50) 11.4 µM): < 10% (inactive)

Compound: O=C(NCc1ccco1)c1coc(=O)c(Br)c1
complex disruption (high dose (five times the growth IC50) 24 µM, low dose (half the growth IC50) 2.4 µM): < 10% (inactive)

The next lines start with the values.

complex disruption (high dose (five times the growth IC50) 12 µM, low dose (half the growth IC50) 1.2 µM): > 50%
Compound: COc1ccc(NC(=O)c2coc(=O)c(Br)c2)cc1

complex disruption (high dose (five times the growth IC50) 60.5 µM, low dose (half the growth IC50) 6.1 µM): > 50%
Compound: COc1ccc(NC(=O)c2ccc(NC(=O)c3coc(=O)c(Br)c3)cc2)cc1

complex disruption (high dose (five times the growth IC50) 17 µM, low dose (half the growth IC50) 1.7 µM): < 10% (inactive)
Compound: O=C(Nc1ccc(F)cc1)c1coc(=O)c(Br)c1

complex disruption (high dose (five times the growth IC50) 147 µM, low dose (half the growth IC50) 14.7 µM): < 10% (inactive)
Compound: O=C(Nc1ccccc1I)c1coc(=O)c(Br)c1

complex disruption (high dose (five times the growth IC50) 17.5 µM, low dose (half the growth IC50) 1.8 µM): < 10% (inactive)
Compound: O=C(NCc1cccnc1)c1coc(=O)c(Br)c1

complex disruption (high dose (five times the growth IC50) 44.5 µM, low dose (half the growth IC50) 4.5 µM): < 10% (inactive)
Compound: Cc1cc(NC(=O)c2coc(=O)c(Br)c2)ccc1C(C)C

complex disruption (high dose (five times the growth IC50) 37.5 µM, low dose (half the growth IC50) 3.8 µM): > 50%
Compound: CC(C)CNC(=O)c1coc(=O)c(Br)c1

complex disruption (high dose (five times the growth IC50) 53.5 µM, low dose (half the growth IC50) 5.4 µM): > 50%
Compound: CC(=O)c1ccc(NC(=O)c2coc(=O)c(Br)c2)cc1

Source: PubChem BioAssay AID687006 (The Scripps Research Institute Molecular Screening Center, 2013)
